Test results taken from US6949648B2, “Condensed pyrazole derivatives, process for producing the same and use thereof” (Takeda Pharmaceutical Company Limited, priority 2000, dated 2005).
Marks after values point to notes of the source that are not given here.

What was measured:
[1] = system: acetic acid induced rising and stretching; assay: Analgesic activity, acetic acid rising method; assay type: in vivo, ICR-mice; conditions: po, 20 min; 10 mg/kg orally, 30 minutes before 0.6% acetic acid i.p.; number of rising and stretching in 20 minutes; read-out: Repression rate (%) Dosage 10 mg/kg
Method: Analgesic Activity Acetic Acid Rising Method Male ICR-mice (5 weeks old, CLEA Japan) were used (1 group, n=10), and a sample was orally administered (0.2 mL/10 g, b.w.). After 30 minutes, 0.6% acetic acid solution was injected to mice intraperitoneally (0.1 mL/10 g, b.w.), and the mice were immediately transferred into an observation cage made of a transparent acrylic resin. The number of rising and stretching during the following period of 20 minutes was counted. The repression rate (%) was calculated by comparing the average numbers between the sample groups and the control groups.

human COX-1 = biological target: T1, human COX-1 (Homo sapiens, UniProt P23219); assay: Determination of COX-1 inhibitory activity (microsome fraction, chemiluminescence); assay type: biochemical; conditions: microsome fraction 40 μg, arachidonic acid, 37° C. 25 minutes preincubation; read-out: Repression rate IC50 (μM) COX-1
T1 construct: made in house; host or cells: Sf-21 insect cells (recombinant baculovirus BAC-COX1, pFASTBAC1); microsome fraction
Method: A 1.8 kb DNA fragment containing human COX-1 cDNA (FASEB J., vol. 5 (9), p. 2304-2312 (1991)) prepared by the PCR method was inserted into plasmid pFASTBAC1 (CIBCOBRL) to obtain a plasmid pFBCOX1.
Using the plasmid pFBCOX1 and BAC-TO-BAC Baculovirus Expression System (GIBCOBRL), a virus stock BAC-COX1 of the recombinant baculovirus was prepared.
Sf-21 cells were inoculated in 125 mL of Sf-900 II SFM medium (GIBCOBRL) at a concentration of 1×10^6 cells/mL, and the medium was incubated at 27° C. for 24 hours. 0.75 mL of the virus stock BAC-COX1 of the recombinant baculovirus was added thereto, and the mixture was incubated further for 72 hours. The cells were separated from the medium by centrifugation (3000 rpm, 10 min), and washed with PBS twice. The cells were suspended in 10 mL of a Lysis buffer (0.1M Tris-HCl (pH 7.4), 5 mM EDTA), and were treated with a homogenizer (POLYTRON) three times at 20000 rpm for 20 seconds so that the cells were crushed. The supernatant obtained after centrifugation (2000 rpm, 10 minutes) was further centrifuged (40000 rpm, 45 minutes) to give a precipitate, which was resuspended in a Lysis buffer (0.1M Tris-HCl (pH 7.4), 5 mM EDTA), and the suspension was stored at −80° C.
Determination of COX-1 and COX-2 Inhibitory Activities
To a mixture of 20 μL of a reaction buffer previously concentrated 10 times (1M Tris-HCl (pH8.0), 50 mM EDTA, 1.0% Tween 20, 50 mM luminol, 100 μM hematin), 20 μL of the microsome fractions (COX-1: 40 μg, COX-2: 20 μg), and 55 μL of distilled water, a sample compound dissolved in DMF (5 μL) was added, and the mixture was left at 37° C. for 25 minutes. The reaction was started by the addition of 20 μM arachidonic acid (100 μL), and chemiluminescence amount during the 10-second period after the addition of arachidonic acid was determined by the use of Lumistar (BMG Lab technologies, GmbH). The inhibition rate was calculated, regarding that the enzyme activity when DMF ([…]) was added was 100%, and the enzyme activity when 4 mM flurbiprofen (5 μL) was added was 0%.

gastric mucosa = assay: Disorder of gastric mucosa; assay type: in vivo, SD rats; conditions: stomach, 300 mg/kg orally, fasted rats, 6 hours after dosing
Method: Disorder of Gastric Mucosa
Male SD origin male-rats (7 weeks old, CLEA Japan) were used. After 24 hours from the termination of food supply, samples were orally administered (5 mL/kg, b.w.). After 5.5 hours, Evan's Blue (0.5% Evan's Blue/saline) was injected intravenously (1 mL/rat) under no anesthesia. After 30 minutes from the shot, the stomach (with esophagus and duodenum of 1.5 to 2 cm length) was removed by celiotomy, and subsequently, the esophagus terminal was closed with a clip, and a 8 mL of 1% formalin solution was injected into the stomach through the duodenum, which was also closed with a clip after the injection. The stomach was left contacting with the 1% formalin solution for more than 10 minutes, and subsequently cut open from duodenum along the greater curvature of stomach. The stomach was washed and spread on a filter paper, and the length of each of the spots dyed by Evan's Blue (hemorrhagic portion: mucosal ablation to ulcer) was measured under a stereomicroscope, and the total length (mm) was calculated by a counter and recorded.

adjuvant arthritis = assay: Anti-adjuvant-arthritic activity; assay type: in vivo, SD rats; conditions: 10 mg/kg orally once a day for 14 days; volume of left hind limb (not injected); day of reading not given
Method: Anti-Adjuvant-Arthritic Activity
Male SD origin male-rats (6 weeks old, CLEA Japan, 1 group: n=7) were used. The adjuvant arthritis method was conducted according to the method of Newbould B. B. et. al., (Brit. J. Pharmacol. Chemother., vol. 21, p. 127, 1963). Complete Freund's adjuvant (a suspension of killed tubercule bacillus in liquid paraffin at a concentration of 0.5%, 0.05 mL) was injected into the right hind limb footpad intracutaneouly to induce multiple arthritis. Samples were administered orally (10 mg/kg, b.w.), once a day for 14 days from the day before the injection day 0 to day 13. Volume of the left hind limb (not injected) was determined by the foot-volume measurement apparatus manufactured by Ugo Basile, on the day just before the adjuvant shot (Day 0), Day 10 and Day 14, and repression rate (%) was calculated comparing the values between the sample group and the control group.

T1 sequence (P23219 24-599): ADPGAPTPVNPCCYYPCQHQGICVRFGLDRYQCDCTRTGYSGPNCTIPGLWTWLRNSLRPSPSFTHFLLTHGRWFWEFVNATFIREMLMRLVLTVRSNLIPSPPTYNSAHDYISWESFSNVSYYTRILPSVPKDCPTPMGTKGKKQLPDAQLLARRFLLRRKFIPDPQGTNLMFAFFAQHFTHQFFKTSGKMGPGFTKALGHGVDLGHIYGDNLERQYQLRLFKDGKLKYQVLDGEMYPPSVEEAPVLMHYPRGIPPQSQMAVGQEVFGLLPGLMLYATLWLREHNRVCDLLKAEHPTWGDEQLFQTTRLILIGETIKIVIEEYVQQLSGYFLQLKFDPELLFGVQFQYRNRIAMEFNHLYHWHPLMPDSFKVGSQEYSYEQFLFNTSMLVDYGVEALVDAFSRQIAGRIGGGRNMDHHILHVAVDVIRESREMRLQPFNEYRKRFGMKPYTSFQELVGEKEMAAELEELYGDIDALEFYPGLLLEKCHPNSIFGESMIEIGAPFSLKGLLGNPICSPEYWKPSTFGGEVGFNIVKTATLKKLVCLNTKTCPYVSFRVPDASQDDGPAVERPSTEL

| Compound | inhibition in vivo at 10 mg/kg [1] | IC50 (human COX-1) | Total length of dyed spots (mm) (gastric mucosa) | Repression rate (%) Dosage 10 mg/kg (adjuvant arthritis) |
| --- | --- | --- | --- | --- |
| Cc1nn(-c2ccccn2)c2nc3ccccc3c(OC3CCCC3)c12 [Example 2-21, 4-Cyclopentyloxy-3-methyl-1-(2-pyridinyl)-1H-pyrazolo[3,4-b]quinoline] | 56% | 4.21 µM | – | – |
| CCCNc1c2ccccc2nc2c1c(C)nn2-c1ccccn1 [Example 2-6, N-[3-Methyl-1-(2-pyridinyl)-1H-pyrazolo[3,4-b]quinolin-4-yl]-N-propylamine] | 57% | 21.7 µM | – | – |
| Cc1nn(-c2ccccn2)c2[nH]c3cccc(F)c3c(=O)c12.Cl [Example 2-79, 5-Fluoro-3-methyl-1-(2-pyridinyl)-1,9-dihydro-4H-pyrazolo[3,4-b]quinolin-4-one hydrochloride] | 38% | 7.8 µM | 0 (300 mg/kg) mm | – |
| O=c1c2ccccc2[nH]c2c1cnn2-c1ccccn1 [Example 2-159, 1-(2-Pyridinyl)-1,9-dihydro-4H-pyrazolo[3,4-b]quinolin-4-one] | 69% | 2.66 µM | 0 (300 mg/kg) mm | – |
| CCCOc1c2ccccc2nc2c1c(C)nn2-c1ccccn1 [Example 2-17, 3-Methyl-4-propoxy-1-(2-pyridinyl)-1H-pyrazolo[3,4-b]quinoline] | 49% | 7.28 µM | – | 61* % |
